Type in all cases: cell-based
The test system of data set [1] is MDA-MB-231 cells. Kind of data set: Measurement of lipid (BODIPY-C11) and cytosolic (DCFH-DA) ROS. To be noted: 12 h; suppressed by Fer-1 (10 μM). The procedure: Lipid ROS was analyzed by flow cytometry: cells were plated at a density of 2 × 10^5 cells/well in 6-well plates. After treatment as indicated, cells were stained with 5 μM BODIPY-C11 dye (diluted in serum-containing DMEM) for 30 min at 37 °C in an incubator. For cytosolic ROS, cells were stained with 10 μM DCF (diluted in serum-free DMEM). Following staining, cells were pelleted and resuspended in 1 mL of PBS. Fluorescence intensity was measured by the analytical flow cytometry (CytoFLEX, […], US). A minimum of 10,000 cells were analyzed for each condition. Data analysis was performed using the FlowJo 7.6.1 software. The starting cell population gating by Forward Scatter and Side Scatter was used to make sure doublet exclusion. Only single cell was used for analysis.

A further data set has as its system MDA-MB-231. Kind of data set: MTT cell viability assay, MDA-MB-231. On the procedure:
(§1) All cell lines were cultured at 37 °C with 5% CO2 in a humidified incubator. HeLa cells were grown in MEM (Gibco) supplemented with 10% fetal bovine serum (FBS, Hyclone) and 1% penicillin/streptomycin (Gibco). MIA PaCa-2, MDA-MB-231, A549, MCF-7, A375 and BEAS-2B cells were grown in DMEM (Gibco) supplemented with 10% FBS and 1% penicillin/streptomycin. CT26, and HCT116 cells were grown in RPMI-1640 supplemented with 10% FBS and 1% penicillin/streptomycin. All cell lines were purchased from the National Collection of Authenticated Cell Cultures (China).
(§2) The antiproliferative activities of the prepared compounds against tested cell lines were evaluated using a standard (MTT)-based colorimetric assay. Cells were plated at a density of 3000 cells/well in 96-well plates and allowed to adhere overnight. Then cells were treated with varying concentrations of synthesized compounds for 72 h. At the end of treatment, 20 μL of thiazolyl blue tetrazolium bromide (MTT) solution (5 mg/mL) was added to each well. Cells were incubated for an additional 4 h at 37 °C and then the medium was removed and replaced with 200 μL of DMSO. The absorbance (OD490) was read on a microplate reader (SpectraMax i3x, Molecular Devices, US). In all experiments, three replicate wells were used for each drug concentration. Each assay was performed at least three times. The IC50 values were calculated by GraphPad Prism 9, which were the mean values derived from three independent experiments.
(In general: Tetrazolium assays rely on reduction of a dye to a coloured formazan, in cell work by metabolically active cells.)

The subject of another data set is HCT 116. Kind of data set: MTT cell viability assay, HCT 116. On the procedure:
as §1, §2

Data set [2] can be described thus: MTT cytotoxicity towards normal cells, BEAS-2B. To be noted: human. On the procedure: as §1, §2
In another data set the test system is MIA PaCa-2. Kind of data set: MTT cell viability assay, MIA PaCa-2. On the procedure: as §1, §2
Another data set has as its system GPX4. Kind of data set: Western blotting, GPX4 protein expression. The settings on record: 15ai 0, 2, 4 and 8 μM, 24 h. On the procedure: Cells on 6-well plates were rinsed twice with cold PBS and lysed in RIPA lysis buffer (50 mM Tris (pH 7.4), 150 mM NaCl, 1% Triton X-100, 1% deoxycholicphenyl methylsulfonyl fluoride, 5.0 mM sodium pyrophosphate, […] leupeptin, 0.1 mM phenylmethylsulfonyl fluoride, and1 mM DTT) containing a protease inhibitor (PMSF) mixture at 1:100 dilution on ice for 30 min. The insoluble components of cell lysates were removed by centrifugation (4 °C, 12000 × g, 10 min), and protein concentrations were measured using a Pierce BCA protein assay kit. Proteins were separated by sodium dodecyl sulfate-polyacrylamide gel electrophoresis (SDS-PAGE) and transferred onto polyvinylidene difluoride (PVDF) membranes. Membranes were blocked using 5% skim milk in TBST and then incubated with diluted indicated primary antibodies: anti-GPX4 (1:1000 dilution, Proteintech, Cat No: 30388-1-AP), anti-SLC7A11 (1:1000 dilution, ABclonal, Cat No: A13685), anti-GAPDH (1:1000 dilution, Wanlei, Cat No: WL01114) at 4 °C with gentle shaking overnight. After washing five times (5 min each) with TBST, membranes were incubated with the HRP conjugated goat anti rabbit IgG (H + L) (1:5000 dilution, Wanlei, Cat No: WLA023) for 1 h at rt. Immunoreactive bands were visualized using an ECL detection kit (Wanlei, Cat No: WLA006) following the manufacturer’s instruction on the ChemiDoc system (BioRad, Shanghai, China).
For orientation: In western blotting, separated proteins are transferred to a membrane and probed.

In data set [3] the test system is MDA-MB-231 cells. Kind of data set: Transmission electron microscopy of cell morphology. The settings on record: 15ai 4 μM, 24 h. On the procedure: Cells were plated at a density of 6 × 10^5 cells/dish in 10 cm culture dishes and allowed to adhere overnight. Then cells were treated with DMSO or compound 15ai for 24 h. Cells were fixed with 2.5% glutaraldehyde in […] phosphate buffer, followed by 1% OsO4 for 2 h. After dehydration, cells were embedded in epoxy resin. The ultrathin sections were made by an ultramicrotome and then stained with lead citrate and uranyl acetate. Images were acquired using the transmission electron microscope (Hitachi H-7650 100kv, Hitachi, Japan). Each experiment was repeated three times independently with similar results.

Values joined by “and” are separate entries in the source; they are usually repeats but may differ in a detail not shown here. Identical values can stand only once. Like-named read-outs stand apart in the source and are kept apart here.

By IC50 is commonly meant the concentration that inhibits the measured activity by half. A word on the CC50: it is the concentration that lowers cell viability or growth by half. A low value points to harm at low concentration. With `C=C=C1CN2[C@H]3C[C@H]1[C@H](C=O)[C@@H]2Cc1c3n(S(=O)(=O)c2ccc(C)cc2)c2ccc(Cl)cc12` [Compound 15ai], the “lipid ROS and cytosolic ROS accumulation” value in the data set on MDA-MB-231 cells [1] was “induce lipid ROS and cytosolic ROS accumulation significantly”. In addition, the IC50 was 2.03 µM in the data set with MDA-MB-231 (Homo sapiens, MDA-MB-231, 72 h, MTT, 72 h, mean of at least three independent experiments, read-out: IC50 MDA-MB-231); 1.68 µM with MDA-MB-231 (Homo sapiens, MDA-MB-231, source data sheet, single values of three experiments, read-out: MTT IC50 MDA-MB-231); 2.11 µM and 2.31 µM with MDA-MB-231 (source data sheet, single values of three experiments, read-out: MTT IC50 MDA-MB-231); 4.78 µM with HCT 116 (Homo sapiens, HCT-116, 72 h, MTT, 72 h, mean of at least three independent experiments, read-out: IC50 HCT 116); 6.28 µM in the data set on HCT 116 (Homo sapiens, HCT-116, source data sheet, single values of three experiments, read-out: MTT IC50 HCT-116); 3.83 µM and 4.24 µM in the data set on HCT 116 (source data sheet, single values of three experiments, read-out: MTT IC50 HCT-116). For the same compound, the IC50 is 8.32 µM in the data set with MIA PaCa-2 (Homo sapiens, MIA PaCa-2, 72 h, MTT, 72 h, mean of at least three independent experiments, read-out: IC50 MIA PaCa-2); 7.92 µM with MIA PaCa-2 (Homo sapiens, MIA PaCa-2, source data sheet, single values of three experiments, read-out: MTT IC50 MIA PaCa-2); 10 µM and 7.05 µM with MIA PaCa-2 (source data sheet, single values of three experiments, read-out: MTT IC50 MIA PaCa-2). Also, the IC50 at 72 h in data set [2] (BEAS-2B lung epithelial cells (normal cells), source data sheet, single values of three experiments) is > 100 µM. Also, the CC50 at 72 h in data set [2] (BEAS-2B lung epithelial cells, MTT, 72 h, cytotoxicity towards normal cells, mean of at least three independent experiments) was > 100 µM. Further, the “protein level of GPX4” value with GPX4 is “did not affect the protein level of GPX4”. Moreover, in the data set on MDA-MB-231 cells [3], the “cell morphology by TEM” value is “mitochondrial swelling occurred”.

These data come from PMC10492809, “A Bischler-Napieralski and homo-Mannich sequence enables diversified syntheses of sarpagine alkaloids and analogues” (Nature Communications, 2023).
